For one test, the system named is aldose reductase. Put plainly: Aldose reductase inhibition / potency (general statement).
In test [1] the target is T1, aldose reductase enzyme obtained from human placenta (Homo sapiens, UniProt P15121).
T1 construct: partially purified aldose reductase enzyme obtained from rat lens or human placenta; from tissue; host or cells: human placenta
Description: Inhibition of partially purified aldose reductase from human placenta. The following applies: for IC50: HUMAN, human placenta enzyme, read-out: IC50 (concentration of drug that inhibits 50% of the enzyme activity). It counts as biochemical. On the procedure: The spiro-hydantoin compounds of Preparations C and D were tested for their ability to reduce or inhibit aldose reductase enzyme activity via the procedures of P. F. Kador et. al. as described in Biophysical Chemistry, 8 (1978) 81-85 and P. F. Kador et. al. as described in Documenta Ophthamologicia, 18 (1979) 117. In every case the […] employed was partially purified aldose reductase enzyme obtained from rat lens or human placenta.

From US4464385A, “Treatment of diabetic complications with hydantoins” (Alcon Laboratories, Inc., priority 1982, dated 1984) come the findings set out here.

With “dl-spiro-(6-methylthio-chroman-4,4'-imidazolidine)-2',5'-dione”, the “potency relative to the resolved 6-fluoro compound” value with aldose reductase was “potency similar to the resolved 6-fluoro compound”. Besides, in test [1], the IC50 turned out to be 0.66 µM.
Take `C[S+]([O-])c1ccc2c(c1)C1(CCO2)NC(=O)NC1=O` (centres unmarked) [D, spiro-(6-methylsulfinylchroman-4,4'-imidazolidine)-2',5'-dione]: the “activity relative to the methylthio derivative” value in the test on aldose reductase is on record as “lacked the activity of the methylthio derivative”. Also, the IC50 in test [1] amounted to 12 µM. Further, the “in vitro inhibition of human placental aldose reductase” value in test [1] (in vitro) is recorded as “inhibit human placental aldose reductase”.
